Reference: patent publication US20170050957A1, “4-AMINO-6-(HETEROCYCLIC)PICOLINATES AND 6-AMINO-2-(HETEROCYCLIC)PYRIMIDINE-4-CARBOXYLATES AND THEIR USE AS HERBICIDES” (Dow AgroSciences LLC, priority 2013, published 2017)

Tested on: Wheat and Barley and test plant species
Assay: Post-emergent Test III, herbicidal activity in wheat and barley (Table 17; visual injury, GR20/GR50/GR80/GR90)
Format: in vivo
Details: 21 d; for Visual Growth Reduction (%) 21 Days After Application, CIRAR / Visual Growth Reduction (%) 21 Days After Application, GALAP / Visual Growth Reduction (%) 21 Days After Application, HORVS / Visual Growth Reduction (%) 21 Days After Application, KCHSC / Visual Growth Reduction (%) 21 Days After Application, LAMPU / Visual Growth Reduction (%) 21 Days After Application, MATCH / Visual Growth Reduction (%) 21 Days After Application, PAPRH / Visual Growth Reduction (%) 21 Days After Application, SASKR / Visual Growth Reduction (%) 21 Days After Application, SINAR / Visual Growth Reduction (%) 21 Days After Application, TRZAS / Visual Growth Reduction (%) 21 Days After Application, VERPE / Visual Growth Reduction (%) 21 Days After Application, VIOTR: post-emergent
Experimental: Post-emergent Test III. Seeds of the desired test plant species were planted in Sun Gro MetroMix® 306 planting mixture, which typically has a pH of 6.0 to 6.8 and an organic matter content of about 30 percent, in plastic pots with a surface area of 103.2 square centimeters (cm^2). When required to ensure good germination and healthy plants, a fungicide treatment and/or other chemical or physical treatment was applied. The plants were grown for 7-36 days (d) in a greenhouse with an approximate 14 hour (h) photoperiod which was maintained at about 18° C. during the day and 17° C. during the night. Nutrients and water were added on a regular basis and supplemental lighting was provided with overhead metal halide 1000-Watt lamps as necessary. The plants were employed for testing when they reached the second or third true leaf stage.
A weighed amount, determined by the highest rate to be tested, of each test compound was placed in a 25 mL glass vial and was dissolved in 4 mL of a 97:3 v/v mixture of acetone and DMSO to obtain concentrated stock solutions. […] The concentrated stock solutions obtained were diluted with 20 mL of an aqueous mixture containing acetone, water, isopropyl alcohol, DMSO, Agri-Dex crop oil concentrate, and X-77 surfactant in a 48:39:10:1.5:1.5:0.02 v/v ratio to obtain spray solutions containing the highest application rates. Additional application rates were obtained by serial dilution of 12 mL of the high rate solution into a solution containing 2 mL of 97:3 v/v mixture of acetone and DMSO and 10 mL of an aqueous mixture containing acetone, water, isopropyl alcohol, DMSO, Agri-Dex crop oil concentrate, and X-77 surfactant in a 48:39:10:1.5:1.5:0.02 v/v ratio to obtain 1/2×, 1/4×, 1/8× and 1/16× rates of the high rate. Compound requirements are based upon a 12 mL application volume at a rate of 187 liters per hectare (L/ha). Formulated compounds were applied to the plant material with an overhead Mandel track sprayer equipped with 8002E nozzles calibrated to deliver 187 L/ha over an application area of 0.503 square meters at a spray height of 18 inches (43 cm) above the average plant canopy height. Control plants were sprayed in the same manner with the solvent blank.
The treated plants and control plants were placed in a greenhouse as described above and watered by subirrigation to prevent wash-off of the test compounds. After 21 d, the condition of the test plants as compared with that of the untreated plants was determined visually and scored on a scale of 0 to 100 percent where 0 corresponds to no injury and 100 corresponds to complete kill. By applying the well-accepted probit analysis as described by J. Berkson in Journal of the American Statistical […], 48, 565 (1953) and by D. Finney in “Probit Analysis” Cambridge University Press (1952), the above data can be used to calculate GR20, GR50, GR80 and GR90 values, which are defined as growth reduction factors that correspond to the effective dose of herbicide required to kill or control 20 percent, 50 percent, 80 percent or 90 percent, respectively, of a target plant.

Nc1c(F)c(-c2ccc3cc[nH]c3c2F)nc(C(=O)O)c1Cl [Compound 1.16, 4-Amino-3-chloro-5-fluoro-6-(7-fluoro-1H-indol-6-yl)picolinic acid]
Visual Growth Reduction (%) 21 Days After Application, CIRAR (CIRAR, 17.5 g ai/ha): D (60-74)
Visual Growth Reduction (%) 21 Days After Application, CIRAR (CIRAR, 35 g ai/ha): B (85-94)
Visual Growth Reduction (%) 21 Days After Application, CIRAR (CIRAR, 70 g ai/ha): A (95-100)
GR50, CIRAR (CIRAR, dose for 50 percent growth reduction, probit analysis): 9 g ai/ha
GR80, CIRAR (CIRAR, dose for 80 percent growth reduction, probit analysis): 25 g ai/ha
GR90, CIRAR (CIRAR, dose for 90 percent growth reduction, probit analysis): 43 g ai/ha
Visual Growth Reduction (%) 21 Days After Application, GALAP (GALAP, 17.5 g ai/ha): F (30-44)
Visual Growth Reduction (%) 21 Days After Application, GALAP (GALAP, 35 g ai/ha): E (45-59)
Visual Growth Reduction (%) 21 Days After Application, GALAP (GALAP, 70 g ai/ha): A (95-100)
GR50, GALAP (GALAP, dose for 50 percent growth reduction, probit analysis): 26 g ai/ha
GR80, GALAP (GALAP, dose for 80 percent growth reduction, probit analysis): 34 g ai/ha
GR90, GALAP (GALAP, dose for 90 percent growth reduction, probit analysis): 40 g ai/ha
Visual Growth Reduction (%) 21 Days After Application, HORVS (HORVS, 17.5 g ai/ha): G (0-29)
Visual Growth Reduction (%) 21 Days After Application, HORVS (HORVS, 35 g ai/ha): G (0-29)
Visual Growth Reduction (%) 21 Days After Application, HORVS (HORVS, 70 g ai/ha): F (30-44)
GR20, HORVS (HORVS, dose for 20 percent growth reduction, probit analysis): 44 g ai/ha
Visual Growth Reduction (%) 21 Days After Application, KCHSC (KCHSC, 17.5 g ai/ha): C (75-84)
Visual Growth Reduction (%) 21 Days After Application, KCHSC (KCHSC, 35 g ai/ha): B (85-94)
Visual Growth Reduction (%) 21 Days After Application, KCHSC (KCHSC, 70 g ai/ha): A (95-100)
GR50, KCHSC (KCHSC, dose for 50 percent growth reduction, probit analysis): 7 g ai/ha
GR80, KCHSC (KCHSC, dose for 80 percent growth reduction, probit analysis): 20 g ai/ha
GR90, KCHSC (KCHSC, dose for 90 percent growth reduction, probit analysis): 39 g ai/ha
Visual Growth Reduction (%) 21 Days After Application, LAMPU (LAMPU, 17.5 g ai/ha): C (75-84)
Visual Growth Reduction (%) 21 Days After Application, LAMPU (LAMPU, 35 g ai/ha): A (95-100)
Visual Growth Reduction (%) 21 Days After Application, LAMPU (LAMPU, 70 g ai/ha): A (95-100)
GR50, LAMPU (LAMPU, dose for 50 percent growth reduction, probit analysis): 3 g ai/ha
GR80, LAMPU (LAMPU, dose for 80 percent growth reduction, probit analysis): 10 g ai/ha
GR90, LAMPU (LAMPU, dose for 90 percent growth reduction, probit analysis): 19 g ai/ha
Visual Growth Reduction (%) 21 Days After Application, MATCH (MATCH, 17.5 g ai/ha): B (85-94)
Visual Growth Reduction (%) 21 Days After Application, MATCH (MATCH, 35 g ai/ha): A (95-100)
Visual Growth Reduction (%) 21 Days After Application, MATCH (MATCH, 70 g ai/ha): A (95-100)
GR50, MATCH (MATCH, dose for 50 percent growth reduction, probit analysis): 3 g ai/ha
GR80, MATCH (MATCH, dose for 80 percent growth reduction, probit analysis): 9 g ai/ha
GR90, MATCH (MATCH, dose for 90 percent growth reduction, probit analysis): 16 g ai/ha
Visual Growth Reduction (%) 21 Days After Application, PAPRH (PAPRH, 17.5 g ai/ha): A (95-100)
Visual Growth Reduction (%) 21 Days After Application, PAPRH (PAPRH, 35 g ai/ha): A (95-100)
Visual Growth Reduction (%) 21 Days After Application, PAPRH (PAPRH, 70 g ai/ha): A (95-100)
GR50, PAPRH (PAPRH, dose for 50 percent growth reduction, probit analysis): 0.0004 g ai/ha
GR80, PAPRH (PAPRH, dose for 80 percent growth reduction, probit analysis): 0.0004 g ai/ha
GR90, PAPRH (PAPRH, dose for 90 percent growth reduction, probit analysis): 0.0004 g ai/ha
Visual Growth Reduction (%) 21 Days After Application, SASKR (SASKR, 17.5 g ai/ha): D (60-74)
Visual Growth Reduction (%) 21 Days After Application, SASKR (SASKR, 35 g ai/ha): C (75-84)
Visual Growth Reduction (%) 21 Days After Application, SASKR (SASKR, 70 g ai/ha): B (85-94)
GR50, SASKR (SASKR, dose for 50 percent growth reduction, probit analysis): 10 g ai/ha
GR80, SASKR (SASKR, dose for 80 percent growth reduction, probit analysis): 28 g ai/ha
GR90, SASKR (SASKR, dose for 90 percent growth reduction, probit analysis): 78 g ai/ha
Visual Growth Reduction (%) 21 Days After Application, SINAR (SINAR, 17.5 g ai/ha): B (85-94)
Visual Growth Reduction (%) 21 Days After Application, SINAR (SINAR, 35 g ai/ha): A (95-100)
Visual Growth Reduction (%) 21 Days After Application, SINAR (SINAR, 70 g ai/ha): A (95-100)
GR50, SINAR (SINAR, dose for 50 percent growth reduction, probit analysis): 5 g ai/ha
GR80, SINAR (SINAR, dose for 80 percent growth reduction, probit analysis): 11 g ai/ha
GR90, SINAR (SINAR, dose for 90 percent growth reduction, probit analysis): 17 g ai/ha
Visual Growth Reduction (%) 21 Days After Application, TRZAS (TRZAS, 17.5 g ai/ha): G (0-29)
Visual Growth Reduction (%) 21 Days After Application, TRZAS (TRZAS, 35 g ai/ha): G (0-29)
Visual Growth Reduction (%) 21 Days After Application, TRZAS (TRZAS, 70 g ai/ha): F (30-44)
GR20, TRZAS (TRZAS, dose for 20 percent growth reduction, probit analysis): 41 g ai/ha
Visual Growth Reduction (%) 21 Days After Application, VERPE (VERPE, 17.5 g ai/ha): A (95-100)
Visual Growth Reduction (%) 21 Days After Application, VERPE (VERPE, 35 g ai/ha): A (95-100)
Visual Growth Reduction (%) 21 Days After Application, VERPE (VERPE, 70 g ai/ha): A (95-100)
GR50, VERPE (VERPE, dose for 50 percent growth reduction, probit analysis): 0.0004 g ai/ha
GR80, VERPE (VERPE, dose for 80 percent growth reduction, probit analysis): 0.05 g ai/ha
GR90, VERPE (VERPE, dose for 90 percent growth reduction, probit analysis): 1 g ai/ha
Visual Growth Reduction (%) 21 Days After Application, VIOTR (VIOTR, 17.5 g ai/ha): E (45-59)
Visual Growth Reduction (%) 21 Days After Application, VIOTR (VIOTR, 35 g ai/ha): D (60-74)
Visual Growth Reduction (%) 21 Days After Application, VIOTR (VIOTR, 70 g ai/ha): C (75-84)
GR50, VIOTR (VIOTR, dose for 50 percent growth reduction, probit analysis): 19 g ai/ha
GR80, VIOTR (VIOTR, dose for 80 percent growth reduction, probit analysis): 56 g ai/ha
GR90, VIOTR (VIOTR, dose for 90 percent growth reduction, probit analysis): 99 g ai/ha
